In US20240132431A1, “METHOD FOR ALKYLATING ACIDIC FUNCTIONAL GROUP” (Chugai Seiyaku Kabushiki Kaisha, priority 2021, published 2024):

Molecular target: T1, Bcl-2 protein (Recombinant Human Bcl-2 Protein) (Homo sapiens, UniProt P10415)
T1 construct: purchased Novus NBP2-34889
Assay: Binding evaluation of mixture library compounds to Bcl-2 using AS-MS (affinity selection mass spectrometry)
Details: for ASMS ratio (%) n = 1 / ASMS ratio (%) n = 2: ASMS Ratio(%)=(A−C)/B×100; for ASMS ratio (%) n = 1: replicate n = 1; for ASMS ratio (%) n = 2: replicate n = 2
Method: For one well of MICROPLATE, 96-well, PP, V-BOTTOM (Greiner bio-one, 651201), DMSO solutions of 12 mixtures (prepared to approximately 0.58 mM based on calculations from the average molecular weight of each mixture), in each of which 100 compounds are mixed, were each dispensed, and dispensed into a total of 12 wells, where the 12 mixtures are mixAI-B4J-01, mixAI-B1M-01, mixAI-B1K-01, mixAI-B10-01, mixAI-B1A-01, mixAI-B3A-01, mixAI-B21-01, mixAI-B2L-01, mixAI-B2N-01, mixAI-B2A-01, mixAI-B2Q-01, and mixAI-B2R-01 listed in [Table AI-03-B4J-01], [Table AI-03-B1M-01], [Table AI-03-B1K-01], [Table AI-03-B10-01], [Table AI-03-B1A-01], [Table AI-03-B3A-01], [Table AI-03-B2I-01], [Table AI-03-B2L-01], [Table AI-03-B2N-01], [Table AI-03-B2A-01], [Table AI-03-B2Q-01], and [AI-03-B2R-01] shown in Example 6. Using the LABCYTE ECHO® 555 Acoustic Dispensing System (BECKMAN COULTER), 70 nL was collected from each of the 12 wells into one arbitrary well to prepare a sample solution with 1200 compounds in the mixed state (the presence of 1152 compounds had already been identified when prepared in Example 6-5-3). (In the present specification, the mixture collected in this one well is referred to as one library.) Furthermore, a Bcl-2 protein (Novus, NBP2-34889, Recombinant Human Bcl-2 Protein, Lot E60145051) (19.2 μL) that had been prepared in advance to be 20.9 μM using a Tris-HCl buffer (25 mM Tris-HCl pH 7.4, 150 mM NaCl, 0.025% Tween-20, 1 mM DTT) was added to the well in which 1200 compounds (the presence of 1152 compounds had already been identified when prepared in Example 6-5-3) were dispensed (final compound concentration […], final Bcl-2 concentration 20 μM), and the mixture was incubated in the dark at 23° C. for 1 hour. Next, using the 96-well MacroSpin column, P-2 Material (Harvard, 74-5655) that had been swollen, conditioning of the 96-well MacroSpin column was performed three times by centrifugation with 200 μL of an assay buffer (25 mM Tris-HCl pH 7.4, 150 mM NaCl, 0.025% Tween-20, 1 mM DTT), 2000 XG, 4° C., 2 min. Subsequently, 20 μL of the sample after incubation was added to the 96-well MacroSpin column, P-2 Material, that had been conditioned, and SEC treatment was performed by centrifugation at 2000×G for 2 minutes. To the liquid passed from the SEC, 32 μL of a 1:1 mixed solution of acetonitrile and methanol (LC/MS grade, Fujifilm Wako Pure Chemical Corporation) was added, the mixture was centrifuged at 1800×G, 4° C., 5 min, and the supernatant was used as analysis sample ASMS (A), while a sample that had been prepared by the same operations at 1200 compounds/well and to which only the Tris-HCl buffer had been added without the Bcl-2 protein was incubated under the same conditions, no 96-well MacroSpin column treatment was performed, the same organic solvent was added, and the supernatant solution obtained by centrifugation was used as STD (B). Next, a sample that had been prepared by the same operations at 1200 compounds/well and to which only the Tris-HCl buffer had been added without the Bcl-2 protein was incubated under the same conditions, the same 96-well MacroSpin column treatment was performed, the same organic solvent was added, and the supernatant solution obtained by centrifugation was used as BK (C), and measured by reversed phase LC/MS.
Then, analysis of the 1200 compounds was carried out for samples A, B, and C with TraceFinder 5.1 (Thermo Fisher Scientific) and CHANCE Software (in-house), and the ASMS Ratio (%) was calculated according to the following calculation formula.
Calculation formula: ASMS Ratio(%)=(A−C)/B×100

[1] = AS-MS on the mixture of 1200 library compounds
[2] = AS-MS, mixture of 1200 compounds, Bcl-2

T1 sequence (P10415 whole entry): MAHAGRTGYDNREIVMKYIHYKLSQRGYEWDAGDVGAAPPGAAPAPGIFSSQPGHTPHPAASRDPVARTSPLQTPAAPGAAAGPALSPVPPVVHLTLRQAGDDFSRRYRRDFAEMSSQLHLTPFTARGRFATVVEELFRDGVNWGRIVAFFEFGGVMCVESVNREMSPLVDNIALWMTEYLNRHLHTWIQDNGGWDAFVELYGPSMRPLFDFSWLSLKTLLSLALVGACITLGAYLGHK

Compound	ASMS ratio (%) (n = 2)	ASMS ratio (%) n = 1 [1] [%]	ASMS ratio (%) n = 2 [1] [%]	ASMS ratio (%) (n = 1)	further results
CCOc1cccc(-c2cnn(-c3cc(C(=O)N4CCN(c5ccc(C(=O)NS(=O)(=O)CCC(F)(F)F)nn5)CC4)cc(C(F)(F)F)c3)c2)c1 [B2N021-01, 6-[4-[3-[4-(3-Ethoxyphenyl)pyrazol-1-yl]-5-(trifluoromethyl)benzoyl]piperazin-1-yl]-N-(3,3,3-trifluoropropylsulfonyl)pyridazine-3-carboxamide]	0.0	–	–	–	–
CCOc1cccc(-c2cc(CN3CCN(c4ccc(C(=O)Nc5ccc(OC)cc5)nn4)CC3)cc(OCC)c2)c1 [B1O081-01, 6-[4-[[3-Ethoxy-5-(3-ethoxyphenyl)phenyl]methyl]piperazin-1-yl]-N-(4-methoxyphenyl)pyridazine-3-carboxamide]	–	3.2	−2.2	–	–
CCOc1cccc(-c2ccccc2CCC(=O)N2CCN(c3ccc(C(=O)NS(=O)(=O)CCC(F)(F)F)nn3)CC2)c1 [B2N011-01, 6-[4-[3-[2-(3-Ethoxyphenyl)phenyl]propanoyl]piperazin-1-yl]-N-(3,3,3-trifluoropropylsulfonyl)pyridazine-3-carboxamide]	0.0	–	–	0.0	–
CCOc1cccc(-c2ccccc2CCC(=O)N2CCN(c3ccc(C(=O)NS(=O)(=O)C(C)(C)C)nn3)CC2)c1 [B2L011-01, N-tert-Butylsulfonyl-6-[4-[3-[2-(3-ethoxyphenyl)phenyl]propanoyl]piperazin-1-yl]pyridazine-3-carboxamide]	0.0	–	–	0.0	–
CCOc1cncc(C#Cc2ccccc2CN2CCN(c3ccc(C(=O)Nc4ccc(OC)cc4)nn3)CC2)c1 [B1O096-01, 6-[4-[[2-[2-(5-Ethoxypyridin-3-yl)ethynyl]phenyl]methyl]piperazin-1-yl]-N-(4-methoxyphenyl)pyridazine-3-carboxamide]	–	0.0	3.5	–	–
CCOc1cccc(-c2cc(CN3CCN(c4ccc(C(=O)NCC56CC7CC(CC(C7)C5)C6)nn4)CC3)cc(OCC)c2)c1 [B1A081-01, N-(1-Adamantylmethyl)-6-[4-[[3-ethoxy-5-(3-ethoxyphenyl)phenyl]methyl]piperazin-1-yl]pyridazine-3-carboxamide]	–	–	–	–	ASMS ratio (%) n = 1 [2]: −10.9%; ASMS ratio (%) n = 2 [2]: −5.5%
CCOc1cccc(-c2ccc(C(=O)N3CCN(c4ccc(C(=O)NS(=O)(=O)C(C)(C)C)cc4)CC3)cc2C)c1 [B2L025-01, N-tert-Butylsulfonyl-4-[4-[4-(3-ethoxyphenyl)-3-methylbenzoyl]piperazin-1-yl]benzamide]	0.0	–	–	0.0	–
4-[4-[[4-(5-Ethoxypyridin-3-yl)-3-fluorophenyl]methyl]piperazin-1-yl]-N-propylbenzamide [B1M085-01]	–	0.0	0.0	–	–
CCOc1cccc(-c2cc(C(=O)N3CCN(c4ccc(C(=O)NS(=O)(=O)C(C)(C)C)nn4)CC3)cc(C(F)(F)F)c2)c1 [B2L017-01, N-tert-Butylsulfonyl-6-[4-[3-(3-ethoxyphenyl)-5-(trifluoromethyl)benzoyl]piperazin-1-yl]pyridazine-3-carboxamide]	0.0	–	–	0.0	–
4-[4-[1-[4-(5-Ethoxypyridin-3-yl)phenyl]ethyl]piperazin-1-yl]-N-propylbenzamide [B1M004-01]	–	–	–	–	ASMS ratio (%) n = 1 [2]: 0.0%; ASMS ratio (%) n = 2 [2]: 0.0%
CCOc1cncc(C#Cc2cncc(C(=O)N3CCN(c4ccc(C(=O)N(C)CC56CC7CC(CC(C7)C5)C6)cc4)CC3)c2)c1 [B3A032-01, N-(1-Adamantylmethyl)-4-[4-[5-[2-(5-ethoxypyridin-3-yl)ethynyl]pyridine-3-carbonyl]piperazin-1-yl]-N-methylbenzamide]	–	9.1	−5.1	–	–
CCOc1cncc(-c2ccc(CN3CCN(c4ccc(C(=O)NS(=O)(=O)C(C)(C)C)cc4)CC3)c(OC)c2)c1 [B2L054-01]	0.0	–	–	0.0	–
CCOc1cccc(-c2csc(C(=O)N3CCN(c4ccc(C(=O)N(C)CC56CC7CC(CC(C7)C5)C6)cc4)CC3)c2)c1 [B3A023-01, N-(1-Adamantylmethyl)-4-[4-[4-(3-ethoxyphenyl)thiophene-2-carbonyl]piperazin-1-yl]-N-methylbenzamide]	–	2.4	1.7	–	–
4-[4-[[3-(5-Ethoxypyridin-3-yl)-5-propan-2-yloxyphenyl]methyl]piperazin-1-yl]-N-propylbenzamide [B1M017-01]	–	–	–	–	ASMS ratio (%) n = 1 [2]: −0.1%; ASMS ratio (%) n = 2 [2]: 0.3%
CCOc1cccc(-c2ccc(C(C)N3CCN(c4ccc(C(=O)N(C)CC56CC7CC(CC(C7)C5)C6)cc4)CC3)c(F)c2)c1 (stereo not drawn) [B3A099-01, N-(1-Adamantylmethyl)-4-[4-[1-[4-(3-ethoxyphenyl)-2-fluorophenyl]ethyl]piperazin-1-yl]-N-methylbenzamide]	–	−2.6	25.2	–	–
CCOc1cncc(-c2csc(C(=O)N3CCN(c4ccc(C(=O)NCC56CC7CC(CC(C7)C5)C6)nn4)CC3)c2)c1 [B1A002-01]	–	–	–	–	ASMS ratio (%) n = 1 [2]: 0.0%; ASMS ratio (%) n = 2 [2]: 4.9%
CCOc1cccc(-c2ccc(CN3CCN(c4ccc(C(=O)NS(=O)(=O)CCC(F)(F)F)nn4)CC3)cc2C)c1 [B2N073-01, 6-[4-[[4-(3-Ethoxyphenyl)-3-methylphenyl]methyl]piperazin-1-yl]-N-(3,3,3-trifluoropropylsulfonyl)pyridazine-3-carboxamide]	0.0	–	–	0.0	–
CCOc1cncc(C#Cc2cc(C(=O)N3CCN(c4ccc(C(=O)NS(=O)(=O)C(C)(C)C)cc4)CC3)cc(C(F)(F)F)c2)c1 [B2L042-01, N-tert-Butylsulfonyl-4-[4-[3-[2-(5-ethoxypyridin-3-yl)ethynyl]-5-(trifluoromethyl)benzoyl]piperazin-1-yl]benzamide]	0.0	–	–	0.0	–
CCOc1cccc(-c2csc(CN3CCN(c4ccc(C(=O)NS(C)(=O)=O)cc4)CC3)c2)c1 [B2I067-01, 4-[4-[[4-(3-Ethoxyphenyl)thiophen-2-yl]methyl]piperazin-1-yl]-N-methylsulfonylbenzamide]	0.0	–	–	0.0	–
CCOc1cncc(-c2cc(CN3CCN(c4ccc(C(=O)NCC56CC7CC(CC(C7)C5)C6)nn4)CC3)cc(C(F)(F)F)c2)c1 [B1A088-01, N-(1-Adamantylmethyl)-6-[4-[[3-(5-ethoxypyridin-3-yl)-5-(trifluoromethyl)phenyl]methyl]piperazin-1-yl]pyridazine-3-carboxamide]	–	–	–	–	ASMS ratio (%) n = 1 [2]: 18.7%; ASMS ratio (%) n = 2 [2]: −7.1%
